Measurements as given in ChEMBL document CHEMBL2401728, “An unexpected Dimroth rearrangement leading to annelated thieno[3,2-d][1,2,3]triazolo[1,5-a]pyrimidines with potent antitumor activity” (Eur J Med Chem, 2013).

Key:
Type in all cases: functional
[1] = Cytotoxicity against human NCI-ADR-RES cells assessed as cellular growth at 0.01 uM after 48 hrs by SRB assay relative to control
[2] = system: MDA-MB-435; test: Cytotoxicity against human MDA-MB-435 cells assessed as cellular growth at 0.01 uM after 48 hrs by SRB assay relative to control
[3] = system: SF-295; test: Cytotoxicity against human SF295 cells assessed as cellular growth at 0.01 uM after 48 hrs by SRB assay relative to control
[4] = system: SF-268; test: Cytotoxicity against human SF268 cells assessed as cellular growth at 0.01 uM after 48 hrs by SRB assay relative to control
[5] = system: HOP-62; test: Cytotoxicity against human HOP62 cells assessed as cellular growth at 0.01 uM after 48 hrs by SRB assay relative to control
[6] = Cytotoxicity against human EKVX cells assessed as cellular growth at 0.01 uM after 48 hrs by SRB assay relative to control
[7] = system: MCF7; test: Cytotoxicity against human MCF7 cells assessed as cellular growth at 100 uM after 48 hrs by SRB assay relative to control
[8] = system: SR; test: Cytotoxicity against human SR cells assessed as cellular growth at 0.01 uM after 48 hrs by SRB assay relative to control
[9] = system: IGROV-1; test: Cytotoxicity against human IGROV1 cells assessed as cellular growth at 100 uM after 48 hrs by SRB assay relative to control
[10] = system: SK-MEL-5; test: Cytotoxicity against human SK-MEL-5 cells assessed as cellular growth at 100 uM after 48 hrs by SRB assay relative to control
[11] = system: SNB-75; test: Cytotoxicity against human SNB75 cells assessed as cellular growth at 100 uM after 48 hrs by SRB assay relative to control
[12] = system: HOP-92; test: Cytotoxicity against human HOP92 cells assessed as cellular growth at 100 uM after 48 hrs by SRB assay relative to control
[13] = system: NCI-H226; test: Cytotoxicity against human NCI-H226 cells assessed as cellular growth at 100 uM after 48 hrs by SRB assay relative to control
[14] = system: A549; test: Cytotoxicity against human A549 cells assessed as cellular growth at 100 uM after 48 hrs by SRB assay relative to control
[15] = system: K562; test: Cytotoxicity against human K562 cells assessed as cellular growth at 100 uM after 48 hrs by SRB assay relative to control
[16] = system: MDA-MB-468; test: Cytotoxicity against human MDA-MB-468 cells assessed as cellular growth at 10 uM after 48 hrs by SRB assay relative to control
[17] = system: Hs-578T; test: Cytotoxicity against human Hs578T cells assessed as cellular growth at 10 uM after 48 hrs by SRB assay relative to control
[18] = system: OVCAR-4; test: Cytotoxicity against human OVCAR4 cells assessed as cellular growth at 10 uM after 48 hrs by SRB assay relative to control
[19] = system: SNB-75; test: Cytotoxicity against human SNB75 cells assessed as cellular growth at 10 uM after 48 hrs by SRB assay relative to control
[20] = system: SF-539; test: Cytotoxicity against human SF539 cells assessed as cellular growth at 10 uM after 48 hrs by SRB assay relative to control
[21] = system: HCC 2998; test: Cytotoxicity against human HCC2998 cells assessed as cellular growth at 10 uM after 48 hrs by SRB assay relative to control
[22] = system: NCI-H322M; test: Cytotoxicity against human NCI-H322M cells assessed as cellular growth at 10 uM after 48 hrs by SRB assay relative to control
[23] = system: HOP-62; test: Cytotoxicity against human HOP62 cells assessed as cellular growth at 10 uM after 48 hrs by SRB assay relative to control
[24] = system: BT-549; test: Cytotoxicity against human BT549 cells assessed as cellular growth at 1 uM after 48 hrs by SRB assay relative to control
[25] = system: UACC-62; test: Cytotoxicity against human UACC62 cells assessed as cellular growth at 1 uM after 48 hrs by SRB assay relative to control
[26] = system: SNB-75; test: Cytotoxicity against human SNB75 cells assessed as cellular growth at 1 uM after 48 hrs by SRB assay relative to control
[27] = system: MDA-MB-231; test: Cytotoxicity against human MDA-MB-231 cells after 48 hrs by SRB assay; conditions: MDA-MB-231, 48 h
[28] = system: ACHN; test: Cytotoxicity against human ACHN cells after 48 hrs by SRB assay
[29] = system: OVCAR-5; test: Cytotoxicity against human OVCAR5 cells after 48 hrs by SRB assay; conditions: OVCAR-5, 48 h
[30] = system: UACC-62; test: Cytotoxicity against human UACC62 cells after 48 hrs by SRB assay; conditions: UACC-62, 48 h
[31] = system: SNB-19; test: Cytotoxicity against human SNB19 cells after 48 hrs by SRB assay; conditions: SNB-19, 48 h
[32] = system: HOP-62; test: Cytotoxicity against human HOP62 cells after 48 hrs by SRB assay; conditions: HOP-62, 48 h
[33] = system: SN12C; test: Cytotoxicity against human SN12C cells assessed as cellular growth at 0.1 uM after 48 hrs by SRB assay relative to control
[34] = system: SF-539; test: Cytotoxicity against human SF539 cells assessed as cellular growth at 0.1 uM after 48 hrs by SRB assay relative to control
[35] = system: HCT-116; test: Cytotoxicity against human HCT116 cells assessed as cellular growth at 0.1 uM after 48 hrs by SRB assay relative to control
[36] = system: K562; test: Cytotoxicity against human K562 cells assessed as cellular growth at 0.1 uM after 48 hrs by SRB assay relative to control
[37] = system: CCRF-CEM; test: Cytotoxicity against human CCRF-CEM cells assessed as cellular growth at 0.1 uM after 48 hrs by SRB assay relative to control
[38] = read-out: LC50 (the source's name)
[39] = read-out: pLC50 (the source's name) (converted)

O=C(CCCn1c2c(sc3ccccc32)c(=O)n2nnc(-c3ccccc3)c12)NCCc1c[nH]cn1
Activity [1]: 101%
Activity [2]: 117%
Activity [3]: 101%
Activity [4]: 105%
Activity [5]: 112%
Activity [6]: 104%
Activity [7]: -73%
Activity [8]: 108%
Activity [9]: -63%
Activity [10]: -100%
Activity [11]: -96%
Activity [12]: -50%
Activity [13]: -72%
Activity [14]: -2%
Activity [15]: -100%
Activity [16]: -93%
Activity [17]: -50%
Activity [18]: -92.51%
Activity [19]: -89%
Activity [20]: -97.26%
Activity [21]: 25.66%
Activity [22]: -34.11%
Activity [23]: -79%
Activity [24]: 100%
Activity [25]: 94%
Activity [26]: 107%
GI50 ([27]; read-out: GI50): 1880 nM
LC50 ([27]; read-out: LC50): 6.54 µM
TGI ([27]; read-out: TGI): 3.51 µM
GI50 ([27]; read-out: pGI50 (converted)): 1860 nM
LC50 ([27]; read-out: pLC50 (converted)): 6.61 µM
TGI ([27]; read-out: pTGI (converted)): 3.47 µM
GI50 ([28]; read-out: GI50): 1580 nM
CC50 [28, 38]: 6.26 µM
TGI ([28]; read-out: TGI): 3.14 µM
GI50 ([28]; read-out: pGI50 (converted)): 1580 nM
CC50 [28, 39]: 6.31 µM
TGI ([28]; read-out: pTGI (converted)): 3.16 µM
GI50 ([29]; read-out: GI50): 56.5 nM
CC50 [29, 38]: 4.06 µM
TGI ([29]; read-out: TGI): 1.36 µM
GI50 ([29]; read-out: pGI50 (converted)): 56.2 nM
CC50 [29, 39]: 4.07 µM
TGI ([29]; read-out: pTGI (converted)): 1.35 µM
GI50 ([30]; read-out: GI50): 1.81 µM
CC50 [30, 38]: 7.01 µM
TGI ([30]; read-out: TGI): 3.56 µM
GI50 ([30]; read-out: pGI50 (converted)): 1.82 µM
CC50 [30, 39]: 7.08 µM
TGI ([30]; read-out: pTGI (converted)): 3.55 µM
GI50 ([31]; read-out: GI50): 5.12 µM
CC50 [31, 38]: 54.3 µM
TGI ([31]; read-out: TGI): 22.1 µM
GI50 ([31]; read-out: pGI50 (converted)): 5.13 µM
CC50 [31, 39]: 53.7 µM
TGI ([31]; read-out: pTGI (converted)): 21.9 µM
GI50 ([32]; read-out: GI50): 1310 nM
CC50 [32, 38]: 6.32 µM
TGI ([32]; read-out: TGI): 2.87 µM
GI50 ([32]; read-out: pGI50 (converted)): 1320 nM
CC50 [32, 39]: 6.31 µM
TGI ([32]; read-out: pTGI (converted)): 2.88 µM
Activity [33]: 40%
Activity [34]: 1%
Activity [35]: 4%
Activity [36]: 23%
Activity [37]: 24%

O=C(O)CCCn1c2c(sc3ccccc32)c(=O)n2nnc(-c3ccccc3)c12
Activity [16]: 85.92%
Activity [18]: 93.19%
Activity [19]: 83%
Activity [20]: 91.17%
Activity [21]: 96.03%
Activity [22]: 86.21%

CN1CCN(CCCn2c3c(sc4ncccc43)c(=O)n3nnc(-c4ccccc4)c23)CC1
Activity [1]: 96%
Activity [2]: 101%
Activity [3]: 106%
Activity [4]: 96%
Activity [5]: 97%
Activity [6]: 98%
Activity [7]: -79%
Activity [8]: 100%
Activity [9]: -75%
Activity [10]: -96%
Activity [11]: -94%
Activity [12]: -67%
Activity [13]: -79%
Activity [14]: -42%
Activity [15]: -29%
Activity [16]: -94%
Activity [17]: 69%
Activity [18]: -65%
Activity [19]: 48%
Activity [20]: -95.99%
Activity [21]: -87%
Activity [22]: -76%
Activity [23]: -90%
Activity [24]: 97%
Activity [25]: 84%
Activity [26]: 66%
GI50 ([27]; read-out: GI50): 1700 nM
TGI ([27]; read-out: TGI): 3.51 µM
GI50 ([27]; read-out: pGI50 (converted)): 1700 nM
TGI ([27]; read-out: pTGI (converted)): 3.55 µM
GI50 ([28]; read-out: GI50): 1630 nM
CC50 [28, 38]: 6.79 µM
TGI ([28]; read-out: TGI): 3.32 µM
GI50 ([28]; read-out: pGI50 (converted)): 1620 nM
CC50 [28, 39]: 6.76 µM
TGI ([28]; read-out: pTGI (converted)): 3.31 µM
GI50 ([29]; read-out: GI50): 2690 nM
CC50 [29, 38]: > 100 µM
TGI ([29]; read-out: TGI): 7.35 µM
GI50 ([29]; read-out: pGI50 (converted)): 2690 nM
CC50 [29, 39]: > 100 µM
TGI ([29]; read-out: pTGI (converted)): 7.41 µM
GI50 ([30]; read-out: GI50): 16.6 µM
CC50 [30, 38]: 71 µM
TGI ([30]; read-out: TGI): 34.3 µM
GI50 ([30]; read-out: pGI50 (converted)): 16.6 µM
CC50 [30, 39]: 70.8 µM
TGI ([30]; read-out: pTGI (converted)): 34.7 µM
GI50 ([31]; read-out: GI50): 2.5 µM
CC50 [31, 38]: > 100 µM
TGI ([31]; read-out: TGI): 5.62 µM
GI50 ([31]; read-out: pGI50 (converted)): 2.51 µM
CC50 [31, 39]: > 100 µM
TGI ([31]; read-out: pTGI (converted)): 5.62 µM
GI50 ([32]; read-out: GI50): 1780 nM
CC50 [32, 38]: 6.11 µM
TGI ([32]; read-out: TGI): 3.3 µM
GI50 ([32]; read-out: pGI50 (converted)): 1780 nM
CC50 [32, 39]: 6.17 µM
TGI ([32]; read-out: pTGI (converted)): 3.31 µM
Activity [33]: 88%
Activity [34]: 89%
Activity [35]: 96%
Activity [36]: 98%
Activity [37]: 99%
